Test results from patent publication US20230346831A1, “METHODS FOR TREATING […] USING LOW DOSE CARBON MONOXIDE” (priority 2020, published 2023).
Values joined by “and” are separate entries in the source; they are usually repeats but may differ in a detail not shown here. Equal values may be shown once.

Test system: MDA-MB-231/TGL cells
Test: metabolomic assay (polar metabolite profiling, mass spectrometry)
Type: cell-based, human
Description: Cells were seeded in a 10 cm cell culture plate with DMEM containing 10% FBS, 0.2 mM L-glutamine and 1% penicillin/streptomycin. After 16 hours of incubation, metabolites were extracted from the cells using 80% methanol. The remaining steps were carried out with no change according to the methods of Goncalves et al, PNAS, 115:4, E743-E752 (2018). All data analyses were done using MetaboAnalyst.
7 × 10^6 cells were seeded in 10-cm cell culture plates with DMEM containing 10% FBS, 0.2 mM L-glutamine and 1% penicillin/streptomycin. Additionally, MCF7/TGL/pQ was cultured in media containing 0.5 µgml^-1 puromycin and 25 mM HEPES. After 16 hours of incubation, metabolites were extracted from the cells using 80% methanol. The remaining steps were carried out by Weill Cornell Medicine Proteomics and Metabolomics Core Facility according to M. D. Goncalves et al., Proc Natl Acad Sci USA 115, E743-E752 (2018). All data analyses were done using MetaboAnalyst 4.0 (www.metaboanalyst.ca/).
To investigate whether 250 ppm CO mimics hypoxia, the HiF1α protein levels were examined in CO treated MCF7/TGL and MDA-MB-231/TGL cells. […] To determine whether 250 ppm CO affects metabolism, polar metabolites were profiled using two breast cancer cell lines, MCF7/TGL and MDA-MB-231/TGL (FIGS. 7-9).

[1] = MDA-MB-231/TGL cells treated with CO (250 ppm), replicates CO 1-3

[C-]#[O+] [CO, Carbon monoxide]
cis-aconitic acid (MCF7/TGL and MDA-MB-231/TGL cells, 250 ppm CO, 16 hours): significantly downregulated | Peak Height of metabolite intensity: 2-Hydroxycaproic acid (HMDB01624) [1]: 244,811 and 833,959 and 281,142 | Peak Height of metabolite intensity: 2-Hydroxyvaleric acid (HMDB01863) [1]: 621,532 and 904,968 and 786,820 | Peak Height of metabolite intensity: 2-Ketobutyric acid (HMDB00005) [1]: 5,289,178 and 6,027,442 and 5,724,353 | Peak Height of metabolite intensity: 2-Ketohexanoic acid (HMDB01864) [1]: 21,644,820 and 23,261,950 | Peak Height of metabolite intensity: 3-Hydroxyhippuric acid (HMDB06116) [1]: 67,709 and 54,023 and 55,195 | Peak Height of metabolite intensity: 3-Hydroxymethylglutaric acid (HMDB00355) [1]: 20,353,060 and 19,480,200 and 19,066,660 | Peak Height of metabolite intensity: 3-Phosphoglyceric acid (HMDB00807) [1]: 2,076,132 and 820,562 and 843,315 | Peak Height of metabolite intensity: 3-hydroxyhexadecanoic acid (HMDB61658) [1]: 119,550 and 182,677 and 362,311 | Peak Height of metabolite intensity: 4-Acetamidobutanoic acid (HMDB03681) [1]: 438,862 and 501,312 and 487,324 | Peak Height of metabolite intensity: 4-Hydroxybenzaldehyde (HMDB11718) [1]: 1,623,875 and 1,610,244 and 2,163,467 | Peak Height of metabolite intensity: 5-Adenosylhomocysteine (HMDB00939) [1]: 502,295 and 543,231 and 555,202 | Peak Height of metabolite intensity: 5-Thymidylic acid (HMDB01227) [1]: 1,061,384 and 1,368,086 and 1,260,084 | Peak Height of metabolite intensity: 5′-Methylthioadenosine (HMDB01173) [1]: 1,678,515 and 1,980,683 and 3,013,280 | Peak Height of metabolite intensity: 6-Phosphogluconic acid (HMDB01316) [1]: 394,956 and 515,553 and 654,253 | Peak Height of metabolite intensity: 7-Methylguanosine (HMDB01107) [1]: 25,667 and 34,657 and 32,703 | Peak Height of metabolite intensity: (R)-3-Hydroxydecanoic acid (HMDB10725) [1]: 88,715 and 193,751 and 99,729 | Peak Height of metabolite intensity: ADP (HMDB01341) [1]: 4,962,730 and 5,529,189 and 5,002,783 | Peak Height of metabolite intensity: ADP-glucose (HMDB06557) [1]: 84,781 and 90,192 and 99,689 | Peak Height of metabolite intensity: AICAR (HMDB01517) [1]: 32,080 and 59,426 | Peak Height of metabolite intensity: Acetylcholine (HMDB00895) [1]: 34,254,070 and 37,448,230 and 42,218,910 | Peak Height of metabolite intensity: Acetylcysteine (HMDB01890) [1]: 3,133,666 and 3,527,413 and 3,894,968 | Peak Height of metabolite intensity: Adenine (HMDB00034) [1]: 1,219,554 and 812,836 and 907,390 | Peak Height of metabolite intensity: Adenosine (HMDB00050) [1]: 18,973,870 and 624,270 and 424,559 | Peak Height of metabolite intensity: Adenosine monophosphate (HMDB00045) [1]: 6,997,849 and 8,959,282 and 6,609,897 | Peak Height of metabolite intensity: Adenosine triphosphate (HMDB00538) [1]: 7,254,237 and 6,217,538 and 7,426,501 | Peak Height of metabolite intensity: Allantoic acid (HMDB01209) [1]: 66,783 and 51,760 and 61,927 | Peak Height of metabolite intensity: Allantoin (HMDB00462) [1]: 1,362,548 and 1,445,842 and 1,605,951 | Peak Height of metabolite intensity: Alpha-Lactose (HMDB00186) [1]: 636,775 and 666,969 and 547,770 | Peak Height of metabolite intensity: Aminoadipic acid (HMDB00510) [1]: 5,352,894 and 5,983,553 and 6,501,110 | Peak Height of metabolite intensity: Arachidonic acid (HMDB01043) [1]: 219,569 and 129,238 and 117,457 | Peak Height of metabolite intensity: Argininosuccinic acid (HMDB00052) [1]: 397,796 and 561,328 and 632,101 | Peak Height of metabolite intensity: Asymmetric dimethylarginine (HMDB01539) [1]: 5,492,503 and 6,220,486 and 6,753,139 | Peak Height of metabolite intensity: Betaine (HMDB00043) [1]: 126,207,200 and 122,297,900 and 134,080,700 | Peak Height of metabolite intensity: Biotin (HMDB00030) [1]: 28,122 and 15,310 | Peak Height of metabolite intensity: CDP (HMDB01546) [1]: 536,936 and 604,322 and 492,208 | Peak Height of metabolite intensity: CDP-Ethanolamine (HMDB01564) [1]: 100,228 and 130,601 and 162,582 | Peak Height of metabolite intensity: Caprylic acid (HMDB00482) [1]: 470,899 and 477,590 and 472,338 | Peak Height of metabolite intensity: Carnosine (HMDB00033) [1]: 2,256,265 and 2,245,049 and 2,446,163 | Peak Height of metabolite intensity: Choline (HMDB00097) [1]: 108,427,800 and 109,880,900 and 111,858,100 | Peak Height of metabolite intensity: Citicoline (HMDB01413) [1]: 361,538 and 444,892 and 574,461 | Peak Height of metabolite intensity: Citric acid (HMDB00094) [1]: 74,805,210 and 82,630,710 and 89,689,600 | Peak Height of metabolite intensity: Citrulline (HMDB00904) [1]: 15,240,380 and 14,266,830 and 19,605,850 | Peak Height of metabolite intensity: Coenzyme A (HMDB01423) [1]: 109,174 and 125,366 and 106,848 | Peak Height of metabolite intensity: Creatine (HMDB00064) [1]: 123,445,200 and 119,145,800 and 129,072,700 | Peak Height of metabolite intensity: Creatinine (HMDB00562) [1]: 23,236,710 and 23,501,360 and 25,483,820 | Peak Height of metabolite intensity: Cytidine (HMDB00089) [1]: 225,855 and 258,465 and 227,521 | Peak Height of metabolite intensity: Cytidine monophosphate (HMDB00095) [1]: 724,977 and 871,719 and 625,602 | Peak Height of metabolite intensity: Cytidine triphosphate (HMDB00082) [1]: 183,937 and 215,682 and 295,169 | Peak Height of metabolite intensity: D-2,3-Dihydroxypropanoic acid (HMDB31818) [1]: 2,140,143 and 2,437,835 and 2,431,980 | Peak Height of metabolite intensity: D-2-Hydroxyglutaric acid (HMDB00606) [1]: 3,167,321 and 3,985,443 and 4,584,429 | Peak Height of metabolite intensity: D-Arabitol (HMDB00568) [1]: 3,445,547 and 3,545,938 and 4,135,015 | Peak Height of metabolite intensity: D-Fructose (HMDB00660) [1]: 6,135,849 and 6,547,945 and 7,210,193 | Peak Height of metabolite intensity: D-Glucose (HMDB00122) [1]: 36,851,430 and 39,288,740 and 42,369,140 | Peak Height of metabolite intensity: D-Glyceraldehyde 3-phosphate (HMDB01112) [1]: 6,590,523 and 2,998,173 and 3,562,678 | Peak Height of metabolite intensity: D-Ribose 5-phosphate (HMDB01548) [1]: 624,479 and 581,839 and 786,584 | Peak Height of metabolite intensity: D-Ribose (HMDB00283) [1]: 2,183,962 and 2,605,392 and 2,639,392 | Peak Height of metabolite intensity: D-Sedoheptulose 7-phosphate (HMDB01068) [1]: 561,321 and 572,202 and 625,243 | Peak Height of metabolite intensity: DL-O-Phosphoserine (HMDB01721) [1]: 185,294 and 163,584 and 141,059 | Peak Height of metabolite intensity: Deoxyinosine (HMDB00071) [1]: 8,871 and 6,834 and 15,777 | Peak Height of metabolite intensity: Deoxyribose 5-phosphate (HMDB01031) [1]: 50,751 and 42,917 and 52,112 | Peak Height of metabolite intensity: Deoxyuridine (HMDB00012) [1]: 40,015 and 22,277 and 25,003 | Peak Height of metabolite intensity: Dimethylglycine (HMDB00092) [1]: 10,914,430 and 13,334,130 and 17,506,690 | Peak Height of metabolite intensity: Erythritol (HMDB02994) [1]: 598,716 and 590,438 and 628,349 | Peak Height of metabolite intensity: Fructose 1,6-bisphosphate (HMDB01058) [1]: 10,176,490 and 12,986,490 and 13,433,710 | Peak Height of metabolite intensity: Fructose 6-phosphate (HMDB00124) [1]: 2,660,942 and 2,572,195 and 2,965,940 | Peak Height of metabolite intensity: Fumaric acid (HMDB00134) [1]: 8,464,455 and 9,727,776 and 11,821,440 | Peak Height of metabolite intensity: GDP-glucose (HMDB03351) [1]: 92,740 and 103,248 and 99,915 | Peak Height of metabolite intensity: Gluconic acid (HMDB00625) [1]: 37,957,970 and 52,856,170 and 64,673,460 | Peak Height of metabolite intensity: Glucosamine 6-phosphate (HMDB01254) [1]: 529,990 and 692,898 and 945,530 | Peak Height of metabolite intensity: Glucose 6-phosphate (HMDB01401) [1]: 2,103,241 and 2,833,469 and 3,624,968 | Peak Height of metabolite intensity: Glutathione (HMDB00125) [1]: 99,156,710 and 109,797,600 and 130,505,000 | Peak Height of metabolite intensity: Glycerol3-phosphate (HMDB00126) [1]: 758,556 and 825,062 and 1,025,018 | Peak Height of metabolite intensity: Glycerophosphocholine (HMDB00086) [1]: 347,562,900 and 361,214,700 and 419,624,900 | Peak Height of metabolite intensity: Glycine (HMDB00123) [1]: 45,296,030 and 53,615,700 and 58,796,920 | Peak Height of metabolite intensity: Guanosine (HMDB00133) [1]: 619,336 and 155,195 and 131,494 | Peak Height of metabolite intensity: Guanosine diphosphate (HMDB01201) [1]: 493,573 and 471,968 and 538,827 | Peak Height of metabolite intensity: Guanosine monophosphate (HMDB01397) [1]: 465,594 and 655,797 and 560,973 | Peak Height of metabolite intensity: Hippuric acid (HMDB00714) [1]: 47,961 and 38,230 and 36,149 | Peak Height of metabolite intensity: Hypotaurine (HMDB00965) [1]: 6,754,939 and 7,052,286 and 8,446,435 | Peak Height of metabolite intensity: Hypoxanthine (HMDB00157) [1]: 211,957 and 135,595 and 141,122 | Peak Height of metabolite intensity: Imidazolelactic acid (HMDB02320) [1]: 128,804 and 165,439 and 221,241 | Peak Height of metabolite intensity: Indolelactic acid (HMDB00671) [1]: 84,732 and 90,304 and 155,173 | Peak Height of metabolite intensity: Inosine (HMDB00195) [1]: 2,168,084 and 318,912 and 236,433 | Peak Height of metabolite intensity: Inosinic acid (HMDB00175) [1]: 178,233 and 246,521 and 243,587 | Peak Height of metabolite intensity: Kynurenic acid (HMDB00715) [1]: 51,692 and 41,122 and 61,792 | Peak Height of metabolite intensity: L-Acetylcarnitine (HMDB00201) [1]: 106,933,600 and 121,142,500 and 148,690,900 | Peak Height of metabolite intensity: L-Arginine (HMDB00517) [1]: 31,387,180 and 29,265,460 and 31,837,150 | Peak Height of metabolite intensity: L-Asparagine (HMDB00168) [1]: 21,992,250 and 21,453,690 and 27,389,900
